IC50 and CC50 data for 4 compounds are collected here from US20110123490A1, “HE[…] COMPOUNDS” (priority 2009, published 2011).

Series [1] has as its target T1, HCV polymerase (NS5B570n-Con1) (Hepatitis C virus genotype 1b, UniProt Q9WMX2).
T1 construct: contains a 21 amino acid deletion at the C-terminus relative to the full-length HCV polymerase; 6-histidine (N); made in house; host or cells: E. coli BL21(DE) pLysS, plasmid pET17b
The experiment in a line: HCV NS5B RNA polymerase activity assay (incorporation of radiolabeled nucleotide into RNA). It is filed as biochemical, HCV Con1 strain. The method, then:
The enzymatic activity of HCV polymerase (NS5B570n-Con1) was measured as the incorporation of radiolabeled nucleotide monophosphates into acid insoluble RNA products. Unincorporated radiolabeled substrate was removed by filtration and scintillant was added to the washed and dried filter plate containing radiolabeled RNA product. The amount of RNA product generated by NS5B570-Con1 at the end of the reaction was directly proportional to the amount of light emitted by the scintillant.
The N-terminal 6-histidine tagged HCV polymerase, derived from HCV Con1 strain, genotype 1b (NS5B570n-Con1) contains a 21 amino acid deletion at the C-terminus relative to the full-length HCV polymerase and was purified from E. coli strain BL21(DE) pLysS. The construct, containing the coding sequence of HCV NS5B Con1 (GenBank accession number AJ242654) was inserted into the plasmid construct pET17b, downstream of a T7 promoter expression cassette and transformed into E. coli. A single colony was grown overnight as a starter culture and later used inoculate 10 L of LB media supplemented with 100 μg/mL ampicillin at 37° C. Protein expression was induced by the addition of 0.25 mM isopropyl-β-D-thiogalactopyranoside (IPTG) when optical density at […] of the culture was between 0.6 and 0.8 and cells were harvested after 16 to 18 h at 30° C. NS5B570n-Con1 was purified to homogeneity using a three-step protocol including subsequent column chromatography on Ni-NTA, SP-Sepharose HP and Superdex 75 resins.
Each 50 μL enzymatic reaction contained 20 nM RNA template derived from the complementary sequence of the Internal Ribosome Entry Site (cIRES), 20 nM NS5B570n-Con1 enzyme, 0.5 μCi of tritiated UTP (Perkin Elmer catalog no. TRK-412; specific activity: 30 to 60 Ci/mmol; stock solution concentration from 7.5×10^−5 M to 20.6×10^−6 M), 1 μM each ATP, CTP, and GTP, 40 mM Tris-HCl pH 8.0, 40 mM NaCl, 4 mM DTT (dithiothreitol), 4 mM MgCl2, and 5 μL of compound serial diluted in DMSO. Reaction mixtures were assembled in 96-well filter plates (cat #MADVN0B, Millipore Co.) and incubated for 2 h at 30° C. Reactions were stopped by addition of 10% final (v/v) trichloroacetic acid and incubated for 40 min at 4° C. […]
The amount of light emitted from the scintillant was converted to counts per minute (CPM) on a Topcount® plate reader (Perkin-Elmer, Energy Range: Low, Efficiency Mode Normal, Count Time: 1 min, Background Subtract: none, Cross talk reduction: Off).
Data was analyzed in Excel® (Microsoft®) and ActivityBase® (Idbs®). […] All data was expressed as a percentage of the positive control. […]

In series [2] the test system is HCV replicon cells (2209-23), genotype 1b replicon in Huh7 cells. The experiment in a line: HCV replicon assay (Renilla luciferase reporter). It is filed as cell-based, HCV genotype 1b. The settings on record: Hepatitis C virus, Huh-7, 72 h; 2209-23 cells, three days incubation, luciferase readout. For orientation: In antiviral work, replicon cells carry a viral genome segment that copies itself.

Another series is described as follows: in vitro. The settings on record: human.

As a reminder, the IC50 is the midpoint of a concentration-inhibition curve.

The structures appear in SMILES notation.

As to `CC1(C)COc2c(-n3ccc(=O)[nH]c3=O)cc(-c3ccc4cc(NS(C)(=O)=O)ccc4c3)cc21` [Compound I-1, N-{6-[7-(2,4-Dioxo-3,4-dihydro-2H-pyrimidin-1-yl)-3,3-dimethyl-2,3-dihydro-benzofuran-5-yl]-naphthalen-2-yl}-methanesulfonamide], in series [1], inhibition was half-maximal at 0.5 nM (IC50).

For `COc1c(-c2ccc3cc(NS(C)(=O)=O)ccc3c2)cc(-n2ccc(=O)[nH]c2=O)c2c1C(C)(C)CO2` [Compound I-2, N-{6-[7-(2,4-Dioxo-3,4-dihydro-2H-pyrimidin-1-yl)-4-methoxy-3,3-dimethyl-2,3-dihydro-benzofuran-5-yl]-naphthalen-2-yl}-methanesulfonamide], the half-inhibitory concentration (IC50) in series [1] is 0.6 nM; in series [2], 5.2 nM. For the same compound, the CC50 in the series “in vitro” amounted to 12000 nM.

In series [1], `COc1c(-c2ccc3cc(NS(C)(=O)=O)ccc3c2)cc(N2CCC(=O)NC2=O)c2c1C(C)(C)CO2` [Compound I-3, N-{6-[7-(2,4-Dioxo-tetrahydro-pyrimidin-1-yl)-4-methoxy-3,3-dimethyl-2,3-dihydro-benzofuran-5-yl]-naphthalen-2-yl}-methanesulfonamide] returned an IC50 of 4.7 nM.

On to `CC1(C)COc2c(-c3ccc4cc(NS(C)(=O)=O)ccc4c3)cc(-n3ccc(=O)[nH]c3=O)cc21` [Compound I-4, N-{6-[5-(2,4-Dioxo-3,4-dihydro-2H-pyrimidin-1-yl)-3,3-dimethyl-2,3-dihydro-benzofuran-7-yl]-naphthalen-2-yl}-methanesulfonamide], for which the concentration for half-maximal inhibition (IC50) came out at 0.9 nM in series [1] and 106 nM in series [2]. Moreover, the CC50 in “in vitro” is 2700 nM.
